Holding throughout (type): in vivo
Test [1] deals with larvae of the diamond black moth Plutella xylostella. As to the kind of experiment: Plutella xylostella test (cabbage leaf dip, larval mortality). The conditions noted are these: mortality after 4 days. As to the method: (§1) Solvent: 7 parts by weight of dimethylformamide
(§2) Emulsifier: 2 parts by weight of alkylaryl polyglycolether
(§3) To produce a suitable preparation of active compound, 1 part by weight of active compound is mixed with the stated amount of solvent and emulsifier, and the concentrate is diluted with emulsifier-containing water to the desired concentration. Cabbage leaves (Brassica oleracea) are treated by being dipped into the preparation of the active compound at the desired concentration and are infested with larvae of the diamond black moth Plutella xylostella as long as the leaves are still moist. After a period of time of 4 days, the mortality is determined. 100% means that all the caterpillars have been killed; 0% means that none of the caterpillars have been killed.

Test [2] relates to larvae of the beet army worm (Spodoptera exigua). As to the kind of experiment: Spodoptera exigua test (cabbage leaf dip, larval mortality). Conditions: mortality after 6 days; rate of application 100 ppm. As to the method: as §1, §2
as §3, with “beet army worm (Spodoptera exigua)” for “diamond black moth Plutella xylostella”, “6” for “4”

In test [3] the test system is larvae of the fall army worm (Spodoptera frugiperda). As to the kind of experiment: Spodoptera frugiperda test (cabbage leaf dip, larval mortality). The conditions noted are these: mortality after 4 days. As to the method:
as §1, §2
as §3, with “fall army worm (Spodoptera frugiperda)” for “diamond black moth Plutella xylostella”

With `CCCOC(=O)NCCCN(C)C.Cl` [propamocarb, propyl[3-(dimethylamino)propyl]carbamate hydrochloride], the “Efficacy (%)” value in test [1] (rate of application 200 ppm) amounted to 25%; in test [2], 0%; in test [3] (rate of application 100 ppm) it was 0%; in test [3] (rate of application 200 ppm) it was 0%. For `O=[N+]([O-])NC1=NCCN1Cc1ccc(Cl)nc1` [imidacloprid], the “Efficacy (%)” value in test [3] (rate of application 20 ppm) is recorded as 0%. Regarding `N#C/N=C1\SCCN1Cc1ccc(Cl)nc1` [thiacloprid], the “Efficacy (%)” value in test [1] (rate of application 20 ppm) stood at 20%. As for `CN1COCN(Cc2cnc(Cl)s2)/C1=N\[N+](=O)[O-]` [thiamethoxam], the “Efficacy (%)” value in test [3] (rate of application 100 ppm) is given as 0%. With `CN/C(=N\[N+](=O)[O-])NCc1cnc(Cl)s1` [clothianidin], the “Efficacy (%)” value in test [2] worked out at 45%; in test [3] (rate of application 20 ppm), 0%.

Values taken from patent US9161541B2, “Pesticide composition comprising propamocarb-hydrochloride and an insecticide active substance” (priority 2006, dated 2015).
